Measured values published in ChEMBL document CHEMBL4340503, “Antiviral activities of Janus-type nucleosides and their related oxime-intermediates” (Bioorg Med Chem, 2019).
Converted amounts (≈) assume the structure as drawn.

Key:
[1] = Cytotoxicity against African green monkey Vero cells infected with Herpes simplex virus 1 after 72 hrs by MTT assay; type: cell-based; conditions: chlorocebus sabaeus, read-out: TC50
[2] = system: Human alphaherpesvirus 1; test: Antiviral activity against Herpes simplex virus 1 infected in African green monkey Vero cells assessed as inhibition of virus-induced cytopathogenic effect by microscopic analysis; type: functional, organism-based; conditions: Human alphaherpesvirus 1, Vero
[3] = (§1) Selectivity index, ratio of TC50 against African green monkey Vero cells infected with Herpes simplex virus 1 after 72 hrs by MTT assay to IC50 against Herpes simplex virus 1 infected in African green monkey Vero cells assessed as inhibition of virus-induced cytopathogenic effect by microscopic analysis; type: toxicity; conditions: read-out: Selectivity Index
[4] = system: Influenza A virus H3N2; test: Antiviral activity against Influenza A virus H3N2 infected in African green monkey Vero cells assessed as inhibition of virus-induced cytopathogenic effect by microscopic analysis; type: functional, organism-based
[5] = as §1, with “Influenza A” for “Herpes simplex”, “H3N2” for “1”; type: toxicity; conditions: read-out: Selectivity Index
[6] = Cytotoxicity against African green monkey Vero cells infected with Herpes simplex virus 2 after 72 hrs by MTT assay; type: cell-based; conditions: chlorocebus sabaeus, read-out: TC50
[7] = Cytotoxicity against African green monkey Vero cells infected with Coxsackievirus B3 after 72 hrs by MTT assay; type: cell-based; conditions: chlorocebus sabaeus, read-out: TC50
[8] = Cytotoxicity against African green monkey Vero cells infected with Hepatitis C virus after 72 hrs by MTT assay; type: cell-based; conditions: chlorocebus sabaeus, read-out: TC50
[9] = Cytotoxicity against African green monkey Vero cells infected with Influenza A virus H3N2 after 72 hrs by MTT assay; type: cell-based; conditions: chlorocebus sabaeus, read-out: TC50
[10] = Cytotoxicity against African green monkey Vero cells infected with Hepatitis B virus after 72 hrs by MTT assay; type: cell-based; conditions: chlorocebus sabaeus, read-out: TC50
[11] = Cytotoxicity against African green monkey Vero cells infected with Human papillomavirus after 72 hrs by MTT assay; type: cell-based; conditions: chlorocebus sabaeus, read-out: TC50
[12] = system: Human alphaherpesvirus 2; test: Antiviral activity against Herpes simplex virus 2 infected in African green monkey Vero cells assessed as inhibition of virus-induced cytopathogenic effect by microscopic analysis; type: functional, organism-based; conditions: Human alphaherpesvirus 2, Vero
[13] = system: Coxsackievirus B3; test: Antiviral activity against Coxsackievirus B3 infected in African green monkey Vero cells assessed as inhibition of virus-induced cytopathogenic effect by microscopic analysis; type: functional, organism-based; conditions: Enterovirus B
[14] = system: Hepatitis C virus; test: Antiviral activity against Hepatitis C virus infected in African green monkey Vero cells assessed as inhibition of virus-induced cytopathogenic effect by microscopic analysis; type: functional, organism-based, Hepacivirus hominis
[15] = system: Human papillomavirus; test: Antiviral activity against Human papillomavirus infected in African green monkey Vero cells assessed as inhibition of virus-induced cytopathogenic effect by microscopic analysis; type: functional, organism-based
[16] = as §1, with “2” for “1”; type: toxicity; conditions: read-out: Selectivity Index
[17] = Selectivity index, ratio of TC50 against African green monkey Vero cells infected with Coxsackievirus B3 after 72 hrs by MTT assay to IC50 against Coxsackievirus B3 infected in African green monkey Vero cells assessed as inhibition of virus-induced cytopathogenic effect by microscopic analysis; type: toxicity; conditions: read-out: Selectivity Index
[18] = Selectivity index, ratio of TC50 against African green monkey Vero cells infected with Hepatitis C virus after 72 hrs by MTT assay to IC50 against Hepatitis C virus infected in African green monkey Vero cells assessed as inhibition of virus-induced cytopathogenic effect by microscopic analysis; type: toxicity; conditions: read-out: Selectivity Index
[19] = Selectivity index, ratio of TC50 against African green monkey Vero cells infected with Hepatitis B virus after 72 hrs by MTT assay to IC50 against Hepatitis B virus infected in African green monkey Vero cells assessed as inhibition of virus-induced cytopathogenic effect by microscopic analysis; type: toxicity; conditions: read-out: Selectivity Index
[20] = Selectivity index, ratio of TC50 against African green monkey Vero cells infected with Human papillomavirus after 72 hrs by MTT assay to IC50 against Human papillomavirus infected in African green monkey Vero cells assessed as inhibition of virus-induced cytopathogenic effect by microscopic analysis; type: toxicity; conditions: read-out: Selectivity Index

Compound | CC50 at 72 h [1] [µg/mL] | IC50 [2] [µg/mL] | selectivity ratio at 72 h [3] | IC50 [4] [µg/mL] | further results
COc1ccccc1CCCNc1ncnc(Cl)c1/C=N/O | 1.29 (≈ 4.02 µM) | > 0.19 | – | – | –
O/N=C/c1c(Cl)ncnc1NCc1ccccc1 | 7.41 (≈ 28.2 µM) | 1.92 (≈ 7.31 µM) | 3.86 | – | –
O/N=C/c1c(Cl)ncnc1NCc1ccc(Br)cc1 | 12.8 (≈ 37.6 µM) | 0.82 (≈ 2.4 µM) | 15.7 | – | –
Nc1ncnc2c1c(=O)[nH]c(=O)n2[C@@H]1O[C@H](CO)[C@@H](O)[C@@H]1O | > 250 | > 83.3 | – | > 333 | –
COc1ccc(CNc2ncnc(Cl)c2/C=N/O)cc1 | 2.47 (≈ 8.44 µM) | 0.35 (≈ 1.2 µM) | 7.06 | – | –
CO/N=C/c1c(Cl)ncnc1NCc1ccccc1OC | 38.5 (≈ 126 µM) | 4.28 (≈ 14 µM) | 9 | – | –
COc1ccc(Cn2c(=O)nc(N)c3c(OC)nc(N)nc32)cc1 | 55.6 (≈ 169 µM) | 12.9 (≈ 39.3 µM) | 4.3 | 18.5 (≈ 56.4 µM) | selectivity ratio at 72 h [5]: 3.3
COc1ccccc1CNc1ncnc(Cl)c1/C=N\O | 10.7 (≈ 36.5 µM) | 4.79 (≈ 16.4 µM) | 2.23 | – | –
COc1ccccc1Nc1ncnc(Cl)c1/C=N/O | 8.9 (≈ 31.9 µM) | 1.43 (≈ 5.13 µM) | 6.22 | – | –
COc1ccc(Cn2c(=O)nc(N)c3c(=O)[nH]c(N)nc32)cc1 | 18.5 (≈ 58.9 µM) | > 6.17 | – | > 55.6 | –
C[C@H]1O[C@@H](n2c(=O)nc(N)c3c(=O)[nH]c(N)nc32)[C@H](O)[C@@H]1O | 8.56 (≈ 27.6 µM) | 2.08 (≈ 6.7 µM) | 4.1 | > 4.12 | –
NC(=O)c1ncn([C@@H]2O[C@H](CO)[C@@H](O)[C@H]2O)n1 [RIBAVIRIN] | > 200 | 38.5 (≈ 158 µM) | > 5.2 | – | –
Nc1nc(=O)n([C@@H]2O[C@H](CO)[C@@H](O)[C@H]2O)c2nc[nH]c(=O)c12 | 2.97 (≈ 9.54 µM) | > 0.79 | – | > 1.37 | –
CO/N=C\c1c(Cl)ncnc1NCc1ccccc1OC | 80.1 (≈ 261 µM) | 14.4 (≈ 46.8 µM) | 5.58 | – | –
Nc1nc2[nH]c(=O)nc(N)c2c(=O)[nH]1 | 16 (≈ 82.6 µM) | > 9.26 | – | 27.8 (≈ 143 µM) | –
Nc1ncn([C@H]2O[C@@H](CO)[C@H](O)[C@@H]2O)c2nc(=O)[nH]c(=O)c1-2 | 577 (≈ 1850 µM) | 333 (≈ 1070 µM) | 1.7 | > 333 | –
COc1ccccc1CNc1ncnc(Cl)c1/C=N/O | 0.86 (≈ 2.94 µM) | 0.04 (≈ 0.137 µM) | 21.5 | 0.27 (≈ 0.922 µM) | selectivity ratio at 72 h [5]: 4.41; CC50 at 72 h [6]: 1.11 µg/mL (≈ 3.79 µM); CC50 at 72 h [7]: 0.86 µg/mL (≈ 2.94 µM); CC50 at 72 h [8]: 32.4 µg/mL (≈ 111 µM); CC50 at 72 h [9]: 1.19 µg/mL (≈ 4.07 µM); CC50 at 72 h [10]: 0.063 µg/mL (≈ 0.215 µM); CC50 at 72 h [11]: 13.5 µg/mL (≈ 46.1 µM); IC50 [12]: 0.29 µg/mL (≈ 0.991 µM); IC50 [13]: 0.05 µg/mL (≈ 0.171 µM); IC50 [14]: 1.19 µg/mL (≈ 4.07 µM); IC50 [15]: 7.9 µg/mL (≈ 27 µM); selectivity ratio at 72 h [16]: 3.83; selectivity ratio at 72 h [17]: 17.2; selectivity ratio at 72 h [18]: 27.2; selectivity ratio at 72 h [19]: 25.3; selectivity ratio at 72 h [20]: 1.71

Compound | CC50 at 72 h [1] [µg/mL] | IC50 [2] [µg/mL] | selectivity ratio at 72 h [3] | IC50 [4] [µg/mL] | further results
COc1nc(N)nc2[nH]c(=O)nc(N)c12 | 48.1 (≈ 231 µM) | 7.31 (≈ 35.1 µM) | 6.6 | > 9.26 | –
CC(C)(C)c1ccc(CNc2ncnc(Cl)c2/C=N\O)cc1 | 1.43 (≈ 4.49 µM) | 0.48 (≈ 1.51 µM) | 2.97 | – | –
Nc1ccc(CNc2ncnc(Cl)c2/C=N/O)cc1 | 2.47 (≈ 8.89 µM) | 0.47 (≈ 1.69 µM) | 5.26 | – | –
COc1cccc(CNc2ncnc(Cl)c2/C=N/O)c1 | 2.31 (≈ 7.89 µM) | 0.48 (≈ 1.64 µM) | 4.81 | – | –
COc1ccccc1CCNc1ncnc(Cl)c1/C=N/O | 80.1 (≈ 261 µM) | 3.56 (≈ 11.6 µM) | 22.5 | – | –
C[C@H]1O[C@@H](n2cnc(N)c3c(=O)[nH]c(=O)nc2-3)[C@H](O)[C@@H]1O | 500 (≈ 1690 µM) | 167 (≈ 564 µM) | 3 | 167 (≈ 564 µM) | selectivity ratio at 72 h [5]: 3
Nc1ncnc2c1c(=O)[nH]c(=O)n2[C@H]1O[C@@H](CO)[C@H](O)[C@@H]1O | 40.5 (≈ 130 µM) | > 30.2 | – | > 33.3 | –
Nc1ncn([C@@H]2O[C@H](CO)[C@@H](O)[C@@H]2O)c2nc(=O)[nH]c(=O)c1-2 | 1.78 (≈ 5.72 µM) | > 0.59 | – | > 0.46 | –
Nc1ncn([C@@H]2O[C@H](CO)[C@@H](O)[C@H]2O)c2nc(=O)[nH]c(=O)c1-2 | 577 (≈ 1850 µM) | > 333 | – | > 333 | –
Cc1ccc(CNc2ncnc(Cl)c2/C=N/O)cc1 | 1.11 (≈ 4.01 µM) | 0.21 (≈ 0.759 µM) | 5.29 | – | –
Nc1ncn([C@H]2C[C@H](O)[C@@H](CO)O2)c2nc(=O)[nH]c(=O)c1-2 | 577 (≈ 1960 µM) | > 333 | – | > 111 | –
Nc1ncn([C@@H]2O[C@H](CO)C[C@H]2O)c2nc(=O)[nH]c(=O)c1-2 | 347 (≈ 1170 µM) | 75.9 (≈ 257 µM) | 4.6 | > 83.3 | –
Nc1nc2c(c(N)nc(=O)n2[C@@H]2O[C@H](CO)[C@@H](O)[C@H]2O)c(=O)[nH]1 | 144 (≈ 442 µM) | > 83.3 | – | 9.26 (≈ 28.4 µM) | selectivity ratio at 72 h [5]: 13
O/N=C/c1c(Cl)ncnc1NCc1ccc(F)cc1 | 12.8 (≈ 45.7 µM) | > 2.47 | – | – | –
CC(C)(C)c1ccc(CNc2ncnc(Cl)c2/C=N/O)cc1 | 0.26 (≈ 0.816 µM) | 0.05 (≈ 0.157 µM) | 5.2 | 0.27 (≈ 0.847 µM) | selectivity ratio at 72 h [5]: 1.78; CC50 at 72 h [6]: 0.53 µg/mL (≈ 1.66 µM); CC50 at 72 h [7]: 0.64 µg/mL (≈ 2.01 µM); CC50 at 72 h [8]: 19.3 µg/mL (≈ 60.5 µM); CC50 at 72 h [9]: 0.48 µg/mL (≈ 1.51 µM); CC50 at 72 h [10]: 0.0397 µg/mL (≈ 0.124 µM); CC50 at 72 h [11]: 9.8 µg/mL (≈ 30.7 µM); IC50 [12]: 0.04 µg/mL (≈ 0.125 µM); IC50 [13]: 0.12 µg/mL (≈ 0.376 µM); IC50 [14]: 1.15 µg/mL (≈ 3.61 µM); IC50 [15]: 5.6 µg/mL (≈ 17.6 µM); selectivity ratio at 72 h [16]: 13.2; selectivity ratio at 72 h [17]: 4.92; selectivity ratio at 72 h [18]: 17.8; selectivity ratio at 72 h [19]: 17.9; selectivity ratio at 72 h [20]: 1.75
Nc1nc2c(c(N)nc(=O)n2[C@H]2C[C@H](O)[C@@H](CO)O2)c(=O)[nH]1 | 347 (≈ 1120 µM) | > 167 | – | > 250 | –
O/N=C/c1c(Cl)ncnc1NCc1ccc(Cl)cc1 | 3.18 (≈ 10.7 µM) | 0.57 (≈ 1.92 µM) | 5.58 | – | –
